Values of other authors in US20210145863A1, “LUBRICATED SUBSTRATES COMPRISING LAMBDA-CARRAGEENAN” (priority 2018, published 2021).

Tested on: HPV
Settings: in vitro (Buck, C. B., et al.)

lambda-carrageenan
Activity against HPV: active
